From patent publication US20260297070A1, “CYCLIC [COMPOUND LEFT OUT] WRN INHIBITORS” (Nimbus Wadjet, Inc., priority 2023, published 2026)

These compounds were tested against T1, human Werner helicase (WRN-BV08, Uniprot Q14191, amino acids 517-1235 with L1074F point mutation) (Homo sapiens, UniProt Q14191, L1074F) (assay: WRN (BV08) ADP-Glo Assay). Details: 0.15 nM WRN, 5 μM ATP, 0.1 nM DNA duplex, 15 min preincubation, 60 min at 25° C., pH 7.5, 1% DMSO; read-out: ADP-Glo_hWRN_IC50.
T1 construct: Uniprot Q14191, amino acids 517-1235 with L1074F point mutation; TEV-cleavable 8×His (C, cleaved yes); made in house; host or cells: Sf9 insect cells (baculovirus)
T1 sequence (Q14191 with tags, fused parts or gaps L1074F limits assumed): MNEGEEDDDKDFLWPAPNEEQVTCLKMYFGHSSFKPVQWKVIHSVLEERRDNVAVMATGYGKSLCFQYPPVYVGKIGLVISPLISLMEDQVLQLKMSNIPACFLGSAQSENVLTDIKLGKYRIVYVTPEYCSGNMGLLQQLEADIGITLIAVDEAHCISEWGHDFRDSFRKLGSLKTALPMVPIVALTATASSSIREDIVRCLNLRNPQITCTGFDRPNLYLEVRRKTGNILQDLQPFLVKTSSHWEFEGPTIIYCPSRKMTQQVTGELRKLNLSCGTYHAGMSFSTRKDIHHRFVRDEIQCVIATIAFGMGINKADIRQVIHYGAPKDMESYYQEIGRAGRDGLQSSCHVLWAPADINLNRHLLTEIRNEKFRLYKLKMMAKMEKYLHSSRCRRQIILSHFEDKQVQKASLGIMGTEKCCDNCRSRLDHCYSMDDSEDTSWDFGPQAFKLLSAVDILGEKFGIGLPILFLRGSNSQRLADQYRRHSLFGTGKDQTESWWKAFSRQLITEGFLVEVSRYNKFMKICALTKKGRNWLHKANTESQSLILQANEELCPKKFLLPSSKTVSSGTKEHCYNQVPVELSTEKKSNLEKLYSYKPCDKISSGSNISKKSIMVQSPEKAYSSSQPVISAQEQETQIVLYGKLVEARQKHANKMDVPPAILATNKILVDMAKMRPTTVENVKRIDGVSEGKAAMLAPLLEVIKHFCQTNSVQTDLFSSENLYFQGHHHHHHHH
Format: biochemical
In short: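 ADP produced by WRN helicase fragment 517-1235 (L1074F, baculovirus/Sf9, untagged) read by ADP-Glo luminescence after 60 min at 25 °C with 5 μM ATP and 0.1 nM duplex DNA, following 15 min compound preincubation. Final enzyme 0.15 nM in Bicine pH 7.5 buffer, 1% DMSO; 20 μM NSC-617145 defined full inhibition.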
For O=C(Cc1ccc(S(F)(F)(F)(F)F)cc1)N(Cc1nc(C(F)F)cs1)C1C=CS(=O)(=O)C1 (stereo not shown) [I-729, N-{[4-(difluoromethyl)-1,3-thiazol-2-yl]methyl}-N-(1,1-dioxo-2,3-dihydro-1lambda6-thiophen-3-yl)-2-[4-(pentafluoro-lambda6-sulfanyl)phenyl]acetamide], the IC50 was over 50 µM.
In the case of COc1cc(CN(C(=O)C(c2ccc(-c3ccc(F)c(F)c3)cc2F)n2ncnn2)[C@@H]2C=CS(=O)(=O)C2)ccn1 (stereo partly drawn) [I-731, N-[(3R)-1,1-dioxo-2,3-dihydro-1lambda6-thiophen-3-yl]-N-[(2-methoxypyridin-4-yl)methyl]-2-(2H-1,2,3,4-tetrazol-2-yl)-2-{3,3′,4′-trifluoro-[1,1′-biphenyl]-4-yl}acetamide], the IC50 is reported as over 50 µM.
COc1cc(CN(C(=O)C(c2ccc(-c3ccc(F)c(F)c3)cc2F)n2ccnn2)[C@@H]2C=CS(=O)(=O)C2)ccn1 (stereo partly drawn) [I-732, N-[(3R)-1,1-dioxo-2,3-dihydro-1lambda6-thiophen-3-yl]-N-[(2-methoxypyridin-4-yl)methyl]-2-(1H-1,2,3-triazol-1-yl)-2-{3,3′,4′-trifluoro-[1,1′-biphenyl]-4-yl}acetamide] showed an IC50 of under 0.5 µM.
COc1cc(CN(C(=O)C(c2ccc(-c3ccc(F)c(F)c3)cc2F)n2nccn2)[C@@H]2C=CS(=O)(=O)C2)ccn1 (stereo partly drawn) [I-733, N-[(3R)-1,1-dioxo-2,3-dihydro-1lambda6-thiophen-3-yl]-N-[(2-methoxypyridin-4-yl)methyl]-2-(2H-1,2,3-triazol-2-yl)-2-{3,3′,4′-trifluoro-[1,1′-biphenyl]-4-yl}acetamide] gave an IC50 of under 0.5 µM.
In the case of COc1cc(CN(C(=O)C(c2ccc(-c3ccc(F)c(F)c3)cc2F)n2cnnn2)[C@@H]2C=CS(=O)(=O)C2)ccn1 (stereo partly drawn) [I-734, N-[(3R)-1,1-dioxo-2,3-dihydro-1lambda6-thiophen-3-yl]-N-[(2-methoxypyridin-4-yl)methyl]-2-(1H-1,2,3,4-tetrazol-1-yl)-2-{3,3′,4′-trifluoro-[1,1′-biphenyl]-4-yl}acetamide], the IC50 is reported as over 50 µM.
In the case of COc1cc(CN(C(=O)Cn2ncc(-c3ccc(F)c(F)c3)c2C)[C@@H]2C=CS(=O)(=O)C2)ccn1 [I-739, 2-[4-(3,4-difluorophenyl)-5-methyl-1H-pyrazol-1-yl]-N-[(3R)-1,1-dioxo-2,3-dihydro-1lambda6-thiophen-3-yl]-N-[(2-methoxypyridin-4-yl)methyl]acetamide], the IC50 is reported as under 0.5 µM.
COc1cc(CN(C(=O)C(OCCC#N)c2ccc(-c3ccc(F)c(F)c3)cc2F)[C@@H]2C=CS(=O)(=O)C2)ccn1 (stereo partly drawn) [I-744, 2-(2-cyanoethoxy)-N-[(3R)-1,1-dioxo-2,3-dihydro-1lambda6-thiophen-3-yl]-N-[(2-methoxypyridin-4-yl)methyl]-2-{3,3′,4′-trifluoro-[1,1′-biphenyl]-4-yl}acetamide] was tested, and the IC50 was 0.5 to 5 µM.
Work on COc1cc(CN(C(=O)C(OCc2cnn(C)c2)c2ccc(-c3ccc(F)c(F)c3)cc2F)[C@@H]2C=CS(=O)(=O)C2)ccn1 (stereo partly drawn) [I-745, N-[(3R)-1,1-dioxo-2,3-dihydro-1lambda6-thiophen-3-yl]-N-[(2-methoxypyridin-4-yl)methyl]-2-[(1-methyl-1H-pyrazol-4-yl)methoxy]-2-{3,3′,4′-trifluoro-[1,1′-biphenyl]-4-yl}acetamide] yielded an IC50 of 0.5 to 5 µM.
Work on COc1cnn(C(C(=O)N(Cc2ccnc(OC)c2)[C@@H]2C=CS(=O)(=O)C2)c2ccc(-c3ccc(F)c(F)c3)cc2F)c1 (stereo partly drawn) [I-748, N-[(3R)-1,1-dioxo-2,3-dihydro-1lambda6-thiophen-3-yl]-2-(4-methoxy-1H-pyrazol-1-yl)-N-[(2-methoxypyridin-4-yl)methyl]-2-{3,3′,4′-trifluoro-[1,1′-biphenyl]-4-yl}acetamide] yielded an IC50 of under 0.5 µM.
COc1cc(CN(C(=O)C(c2ccc(-c3ccc(F)c(F)c3)cc2F)n2ncc3ccncc32)[C@@H]2C=CS(=O)(=O)C2)ccn1 (stereo partly drawn) [I-751, N-[(3R)-1,1-dioxo-2,3-dihydro-1lambda6-thiophen-3-yl]-N-[(2-methoxypyridin-4-yl)methyl]-2-{1H-pyrazolo[3,4-c]pyridin-1-yl}-2-{3,3′,4′-trifluoro-[1,1′-biphenyl]-4-yl}acetamide] was tested, and the IC50 was 10 to 50 µM.
With COc1cc(CN(C(=O)C(OC2COC2)c2ccc(-c3ccc(F)c(F)c3)cc2F)[C@@H]2C=CS(=O)(=O)C2)ccn1 (stereo partly drawn) [I-752, N-[(3R)-1,1-dioxo-2,3-dihydro-1lambda6-thiophen-3-yl]-N-[(2-methoxypyridin-4-yl)methyl]-2-(oxetan-3-yloxy)-2-{3,3′,4′-trifluoro-[1,1′-biphenyl]-4-yl}acetamide] the IC50 was 5 to 10 µM.
Compound O=C(Cn1cc(-c2ccc(F)cc2)cn1)N(Cc1ccnc(OC(F)(F)F)c1)C1C=CS(=O)(=O)C1 (stereo not shown) [I-753, N-(1,1-dioxo-2,3-dihydro-1lambda6-thiophen-3-yl)-2-[4-(4-fluorophenyl)-1H-pyrazol-1-yl]-N-{[2-(trifluoromethoxy)pyridin-4-yl]methyl}acetamide] has an IC50 of 0.5 to 5 µM.
With Cc1sc(CN(C(=O)Cc2ccc(-c3ccc(F)c(F)c3)cc2F)C2C=CS(=O)(=O)C2)nc1C1CC1 (stereo not shown) [I-754, N-[(4-cyclopropyl-5-methyl-1,3-thiazol-2-yl)methyl]-N-(1,1-dioxo-2,3-dihydro-1lambda6-thiophen-3-yl)-2-{3,3′,4′-trifluoro-[1,1′-biphenyl]-4-yl}acetamide] the IC50 was 0.5 to 5 µM.
For COc1ccc2c(c1)CC(C(=O)N(Cc1ccncc1)C1C=CS(=O)(=O)C1)CO2 (stereo not shown) [I-756, N-(1,1-dioxo-2,3-dihydro-1lambda6-thiophen-3-yl)-6-methoxy-N-[(pyridin-4-yl)methyl]-3,4-dihydro-2H-1-benzopyran-3-carboxamide], the IC50 was over 50 µM.
O=C(Cc1ccc(S(F)(F)(F)(F)F)cc1)N(Cc1nn[nH]n1)C1C=CS(=O)(=O)C1 (stereo not shown) [I-757, N-(1,1-dioxo-2,3-dihydro-1lambda6-thiophen-3-yl)-2-[4-(pentafluoro-lambda6-sulfanyl)phenyl]-N-[(2H-1,2,3,4-tetrazol-5-yl)methyl]acetamide] showed an IC50 of over 50 µM.
Compound COc1cc(CN(C(=O)C(c2ccc(-c3ccc(F)c(F)c3)cc2F)n2cc(C(C)(C)O)cn2)[C@@H]2C=CS(=O)(=O)C2)ccn1 (stereo partly drawn) [I-758, N-[(3R)-1,1-dioxo-2,3-dihydro-1lambda6-thiophen-3-yl]-2-[4-(2-hydroxypropan-2-yl)-1H-pyrazol-1-yl]-N-[(2-methoxypyridin-4-yl)methyl]-2-{3,3′,4′-trifluoro-[1,1′-biphenyl]-4-yl}acetamide] has an IC50 of 0.5 to 5 µM.
With O=C(Cn1cc(-c2ccc(F)c(F)c2)cn1)N(Cc1ccnc(N2CCOCC2)c1)C1C=CS(=O)(=O)C1 (stereo not shown) [I-759, 2-[4-(3,4-difluorophenyl)-1H-pyrazol-1-yl]-N-(1,1-dioxo-2,3-dihydro-1lambda6-thiophen-3-yl)-N-{[2-(morpholin-4-yl)pyridin-4-yl]methyl}acetamide] the IC50 was 0.5 to 5 µM.
Compound O=C(Cn1cc(-c2ccc(F)c(F)c2)cn1)N(Cc1ccnc(N2CCC2)c1)C1C=CS(=O)(=O)C1 (stereo not shown) [I-760, N-{[2-(azetidin-1-yl)pyridin-4-yl]methyl}-2-[4-(3,4-difluorophenyl)-1H-pyrazol-1-yl]-N-(1,1-dioxo-2,3-dihydro-1lambda6-thiophen-3-yl)acetamide] has an IC50 of under 0.5 µM.
Compound O=C(Cn1cc(-c2ccc(F)c(F)c2)cn1)N(Cc1ccnc(OCCN2CCOCC2)c1)C1C=CS(=O)(=O)C1 (stereo not shown) [I-761, 2-[4-(3,4-difluorophenyl)-1H-pyrazol-1-yl]-N-(1,1-dioxo-2,3-dihydro-1lambda6-thiophen-3-yl)-N-({2-[2-(morpholin-4-yl)ethoxy]pyridin-4-yl}methyl)acetamide] has an IC50 of under 0.5 µM.
